Measured values taken from the NIST ThermoML archive (doi:10.1021/je700260f).

Details: 323.14 K, Liquid, Vibrating tube method

FC(C(F)(F)F)C(F)(F)F [1,1,1,2,3,3,3-heptafluoropropane]
Details	mass density [kg/m3]
4100 kPa	1311
4120 kPa	1311.1
4140 kPa	1311.5
4170 kPa	1311.8
4190 kPa	1312
4220 kPa	1312.3
4240 kPa	1312.4
4270 kPa	1312.8
4290 kPa	1313.1
4310 kPa	1313.2
4330 kPa	1313.5
4360 kPa	1313.8
4380 kPa	1313.9
4400 kPa	1314.2
4420 kPa	1314.6
4440 kPa	1314.6
4470 kPa	1314.9
4500 kPa	1315.2
4510 kPa	1315.3
4540 kPa	1315.5
4560 kPa	1315.8
4590 kPa	1316
4610 kPa	1316.2
4640 kPa	1316.6
4660 kPa	1316.8
4690 kPa	1317.1
4710 kPa	1317.3
4740 kPa	1317.6
4960 kPa	1319.7
4980 kPa	1320.1
5020 kPa	1320.3
5040 kPa	1320.6
5070 kPa	1320.9
5100 kPa	1321.1
5130 kPa	1321.4
5150 kPa	1321.7
5180 kPa	1321.7
5200 kPa	1322
5220 kPa	1322.3
5250 kPa	1322.6
5280 kPa	1322.9
5310 kPa	1323.2
5330 kPa	1323.3
5360 kPa	1323.7
5390 kPa	1323.9
5420 kPa	1324.1
5440 kPa	1324.3
5470 kPa	1324.7
5490 kPa	1324.9
5520 kPa	1325.2
5540 kPa	1325.4
5570 kPa	1325.7
5600 kPa	1325.9
5630 kPa	1326.2
5650 kPa	1326.4
5670 kPa	1326.6
5960 kPa	1329.4
5990 kPa	1329.5
6010 kPa	1329.7
6030 kPa	1330
6050 kPa	1330
6080 kPa	1330.3
6100 kPa	1330.6
6120 kPa	1330.7
6140 kPa	1330.8
6160 kPa	1331.1
6180 kPa	1331.2
6200 kPa	1331.4
6230 kPa	1331.8
6240 kPa	1331.8
6270 kPa	1332
6290 kPa	1332.4
6310 kPa	1332.4
6330 kPa	1332.6
6350 kPa	1333
6380 kPa	1333.1
6390 kPa	1333.3
6410 kPa	1333.5
6463 kPa	1333.8
6556 kPa	1334.6
6581 kPa	1334.8
6778 kPa	1336.5
6803 kPa	1336.7
6825 kPa	1337
6840 kPa	1337.1
6865 kPa	1337.3
6881 kPa	1337.4
6903 kPa	1337.7
6923 kPa	1337.8
6947 kPa	1338.1
6974 kPa	1338.2
7006 kPa	1338.7
7056 kPa	1338.9
7083 kPa	1339.2
7103 kPa	1339.4
7124 kPa	1339.5
7147 kPa	1339.7
7168 kPa	1339.9
7194 kPa	1340.2
7215 kPa	1340.4
7245 kPa	1340.6
7268 kPa	1340.7
7292 kPa	1341
7328 kPa	1341.3
7350 kPa	1341.5
7375 kPa	1341.7
7395 kPa	1341.7
7423 kPa	1342.1
7444 kPa	1342.2
7468 kPa	1342.4
7492 kPa	1342.6
7516 kPa	1342.8
7540 kPa	1343.1
7566 kPa	1343.2
7592 kPa	1343.5
7619 kPa	1343.7
7640 kPa	1344
7661 kPa	1344.2
7683 kPa	1344.2
7702 kPa	1344.3
7719 kPa	1344.5
7741 kPa	1344.7
7761 kPa	1344.8
7781 kPa	1345
7801 kPa	1345.1
7818 kPa	1345.3
7837 kPa	1345.4
7859 kPa	1345.7
7878 kPa	1345.9
7903 kPa	1346
7924 kPa	1346
7964 kPa	1346.4
8025 kPa	1347
8049 kPa	1347.2
8068 kPa	1347.2
8087 kPa	1347.4
8101 kPa	1347.6
8118 kPa	1347.7
8142 kPa	1347.8
8162 kPa	1348.1
8181 kPa	1348.2
8197 kPa	1348.3
8219 kPa	1348.6
8234 kPa	1348.6
8250 kPa	1348.9
8266 kPa	1348.7
8284 kPa	1349
8300 kPa	1349.3
8316 kPa	1349.2
8385 kPa	1349.8
8410 kPa	1350.2
8432 kPa	1350.1
8450 kPa	1350.4
8914 kPa	1353.9
8936 kPa	1354.2
8952 kPa	1354.1
8977 kPa	1354.5
8991 kPa	1354.6
9010 kPa	1354.7
9030 kPa	1354.9
9051 kPa	1354.9
9072 kPa	1355.2
9092 kPa	1355.3
9115 kPa	1355.4
9133 kPa	1355.7
9154 kPa	1355.8
9171 kPa	1355.9
9191 kPa	1356.1
9214 kPa	1356.3
9238 kPa	1356.3
9264 kPa	1356.7
9290 kPa	1356.9
9305 kPa	1357
9326 kPa	1357.1
9347 kPa	1357.2
9371 kPa	1357.4
9389 kPa	1357.5
9411 kPa	1357.8
9432 kPa	1357.9
9459 kPa	1358.1
9483 kPa	1358.2
9503 kPa	1358.4
9521 kPa	1358.4
9543 kPa	1358.6
9559 kPa	1358.9
9574 kPa	1358.9
9596 kPa	1359
9618 kPa	1359.2
9639 kPa	1359.5
9657 kPa	1359.5
9681 kPa	1359.8
9700 kPa	1359.9
9913 kPa	1361.5
9929 kPa	1361.6
9948 kPa	1361.8
9976 kPa	1361.9
9997 kPa	1362.1
10019 kPa	1362.3
10043 kPa	1362.2
10066 kPa	1362.5
10083 kPa	1362.6
10105 kPa	1362.8
10130 kPa	1363
10153 kPa	1363.3
10170 kPa	1363.3
